In experiment [1] the target is T1, Inhibitor of nuclear factor kappa-B kinase subunit beta (Homo sapiens) (UniProt O14920).
T1 sequence (whole entry): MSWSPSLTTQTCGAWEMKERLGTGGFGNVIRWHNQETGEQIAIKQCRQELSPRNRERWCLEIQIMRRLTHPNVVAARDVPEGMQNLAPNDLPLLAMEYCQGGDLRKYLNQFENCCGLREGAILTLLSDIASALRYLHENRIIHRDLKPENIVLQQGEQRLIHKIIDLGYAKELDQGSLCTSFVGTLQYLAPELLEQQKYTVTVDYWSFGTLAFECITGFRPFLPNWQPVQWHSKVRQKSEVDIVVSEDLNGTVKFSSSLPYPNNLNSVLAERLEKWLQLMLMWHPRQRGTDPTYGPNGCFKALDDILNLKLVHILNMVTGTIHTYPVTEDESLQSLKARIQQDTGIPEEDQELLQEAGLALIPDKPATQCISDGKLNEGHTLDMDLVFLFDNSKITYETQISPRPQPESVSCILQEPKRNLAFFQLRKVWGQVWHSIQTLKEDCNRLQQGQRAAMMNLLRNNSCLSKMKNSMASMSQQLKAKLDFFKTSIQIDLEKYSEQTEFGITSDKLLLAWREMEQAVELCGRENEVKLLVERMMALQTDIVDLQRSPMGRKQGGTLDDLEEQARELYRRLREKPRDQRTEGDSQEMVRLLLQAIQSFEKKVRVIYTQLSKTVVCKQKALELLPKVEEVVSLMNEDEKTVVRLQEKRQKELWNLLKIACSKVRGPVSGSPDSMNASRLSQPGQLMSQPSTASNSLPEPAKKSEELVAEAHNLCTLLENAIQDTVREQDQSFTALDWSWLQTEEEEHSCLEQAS
Description: Selectivity interaction (Kinase panel (Z-LYTE Assay)) EUB0001632a IKBKB. The note with it: at 10 µM.

The target of experiment [2] is Serine/threonine-protein kinase NIM1 (Homo sapiens, UniProt Q8IY84). Description: Selectivity interaction (KinomeScan (DiscoverX)) EUB0001619a NIM1K. The note with it: at 1 µM.
Experiment [3] deals with Receptor tyrosine-protein kinase erbB-3 (Homo sapiens) (UniProt P21860). Description: Selectivity interaction (KinomeScan (DiscoverX)) EUB0000607a ERBB3. The note with it: at 10 µM.
In experiment [4] the target is T2, Protein kinase C zeta type (Homo sapiens) (UniProt Q05513).
T2 sequence (whole entry): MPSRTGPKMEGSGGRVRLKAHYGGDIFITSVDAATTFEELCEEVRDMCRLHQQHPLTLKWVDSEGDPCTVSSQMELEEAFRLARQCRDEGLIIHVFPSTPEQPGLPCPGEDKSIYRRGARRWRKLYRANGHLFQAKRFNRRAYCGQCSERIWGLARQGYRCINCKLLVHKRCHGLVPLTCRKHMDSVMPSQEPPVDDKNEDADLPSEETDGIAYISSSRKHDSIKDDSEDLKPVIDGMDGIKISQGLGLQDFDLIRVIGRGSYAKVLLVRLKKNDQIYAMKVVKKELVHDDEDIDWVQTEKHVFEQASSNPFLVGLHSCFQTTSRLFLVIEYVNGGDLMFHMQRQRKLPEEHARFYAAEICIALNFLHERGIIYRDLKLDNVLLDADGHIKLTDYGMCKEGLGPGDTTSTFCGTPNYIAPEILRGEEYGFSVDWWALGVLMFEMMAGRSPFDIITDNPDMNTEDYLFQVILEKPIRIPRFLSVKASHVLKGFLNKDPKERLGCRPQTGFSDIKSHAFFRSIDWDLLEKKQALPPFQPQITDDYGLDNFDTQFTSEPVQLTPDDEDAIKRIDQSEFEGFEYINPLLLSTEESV
Description: Selectivity interaction (Kinase panel (Invitrogen)) EUB0000639a PRKCZ. To be noted: at 200 nM.

In experiment [5] the target is T3, Serine/threonine-protein kinase Nek3 (Homo sapiens) (UniProt P51956).
T3 sequence (whole entry): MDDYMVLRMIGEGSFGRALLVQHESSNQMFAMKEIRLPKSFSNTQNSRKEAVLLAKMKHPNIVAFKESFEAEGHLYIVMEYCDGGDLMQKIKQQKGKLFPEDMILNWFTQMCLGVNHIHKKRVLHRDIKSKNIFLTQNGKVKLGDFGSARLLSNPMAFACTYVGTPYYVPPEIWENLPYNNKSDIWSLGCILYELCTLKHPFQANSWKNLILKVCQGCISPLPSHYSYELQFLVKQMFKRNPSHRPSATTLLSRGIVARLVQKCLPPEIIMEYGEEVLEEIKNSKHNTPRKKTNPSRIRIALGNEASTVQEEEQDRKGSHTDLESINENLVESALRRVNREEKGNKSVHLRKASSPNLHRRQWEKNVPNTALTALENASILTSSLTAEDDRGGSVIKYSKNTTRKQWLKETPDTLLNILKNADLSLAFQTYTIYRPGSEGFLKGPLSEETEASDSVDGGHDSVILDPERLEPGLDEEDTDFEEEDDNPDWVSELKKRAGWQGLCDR
Description: Selectivity interaction (ProQinase) EUB0000171b NEK3.

The target in experiment [6] is Mitogen-activated protein kinase kinase kinase 1 (Homo sapiens, UniProt Q13233). The experiment is described as follows: Selectivity interaction (KinomeScan (DiscoverX)) EUB0000655a MAP3K1. To be noted: at 10 µM.
The target of experiment [7] is T4, Histone-lysine N-methyltransferase SMYD3 (Homo sapiens) (UniProt Q9H7B4).
T4 sequence (whole entry): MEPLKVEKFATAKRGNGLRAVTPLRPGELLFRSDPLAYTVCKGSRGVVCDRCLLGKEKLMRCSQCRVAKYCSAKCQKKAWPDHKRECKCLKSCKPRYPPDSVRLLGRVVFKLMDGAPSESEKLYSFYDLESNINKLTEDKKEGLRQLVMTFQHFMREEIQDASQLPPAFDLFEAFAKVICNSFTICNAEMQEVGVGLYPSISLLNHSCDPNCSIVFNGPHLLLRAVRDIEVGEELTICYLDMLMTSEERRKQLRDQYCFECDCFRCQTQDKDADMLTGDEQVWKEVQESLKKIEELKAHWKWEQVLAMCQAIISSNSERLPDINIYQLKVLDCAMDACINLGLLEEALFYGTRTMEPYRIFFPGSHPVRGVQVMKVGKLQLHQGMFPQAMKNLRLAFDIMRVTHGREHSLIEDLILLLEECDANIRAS
The experiment is described as follows: Selectivity interaction (Transferase panel (protein, RNA, and DNA methyltransferases. and EP300 (acetyltransferase))) EUB0000270b SMYD3.

For experiment [8], the target named is Tyrosine-protein kinase Lck (Homo sapiens, UniProt P06239). Description: Selectivity interaction (Panel of non-epigenetic targets (kinases, GPCRs, ion channels, and transporters, Eurofins) ) EUB0000271b LCK. The note with it: at 1 µM.
The target in experiment [9] is Activin receptor type-2B (Homo sapiens) (UniProt Q13705). Description: Selectivity interaction (KinomeScan (DiscoverX)) EUB0001079a ACVR2B. To be noted: at 1 µM.
Experiment [10] addresses Serine/threonine-protein kinase MARK2 (Homo sapiens) (UniProt Q7KZI7). Description: Selectivity interaction (Millipore kinase profiler) EUB0000124b MARK2. To be noted: at 10 µM.
The target in experiment [11] is TRAF2 and NCK-interacting protein kinase (Homo sapiens) (UniProt Q9UKE5). Description: Selectivity interaction (KinomeScan (DiscoverX)) EUB0000229b TNIK. The note with it: at 10 µM.
TRAF2 and NCK-interacting protein kinase (Homo sapiens), sequence (Q9UKE5 whole entry, looked up): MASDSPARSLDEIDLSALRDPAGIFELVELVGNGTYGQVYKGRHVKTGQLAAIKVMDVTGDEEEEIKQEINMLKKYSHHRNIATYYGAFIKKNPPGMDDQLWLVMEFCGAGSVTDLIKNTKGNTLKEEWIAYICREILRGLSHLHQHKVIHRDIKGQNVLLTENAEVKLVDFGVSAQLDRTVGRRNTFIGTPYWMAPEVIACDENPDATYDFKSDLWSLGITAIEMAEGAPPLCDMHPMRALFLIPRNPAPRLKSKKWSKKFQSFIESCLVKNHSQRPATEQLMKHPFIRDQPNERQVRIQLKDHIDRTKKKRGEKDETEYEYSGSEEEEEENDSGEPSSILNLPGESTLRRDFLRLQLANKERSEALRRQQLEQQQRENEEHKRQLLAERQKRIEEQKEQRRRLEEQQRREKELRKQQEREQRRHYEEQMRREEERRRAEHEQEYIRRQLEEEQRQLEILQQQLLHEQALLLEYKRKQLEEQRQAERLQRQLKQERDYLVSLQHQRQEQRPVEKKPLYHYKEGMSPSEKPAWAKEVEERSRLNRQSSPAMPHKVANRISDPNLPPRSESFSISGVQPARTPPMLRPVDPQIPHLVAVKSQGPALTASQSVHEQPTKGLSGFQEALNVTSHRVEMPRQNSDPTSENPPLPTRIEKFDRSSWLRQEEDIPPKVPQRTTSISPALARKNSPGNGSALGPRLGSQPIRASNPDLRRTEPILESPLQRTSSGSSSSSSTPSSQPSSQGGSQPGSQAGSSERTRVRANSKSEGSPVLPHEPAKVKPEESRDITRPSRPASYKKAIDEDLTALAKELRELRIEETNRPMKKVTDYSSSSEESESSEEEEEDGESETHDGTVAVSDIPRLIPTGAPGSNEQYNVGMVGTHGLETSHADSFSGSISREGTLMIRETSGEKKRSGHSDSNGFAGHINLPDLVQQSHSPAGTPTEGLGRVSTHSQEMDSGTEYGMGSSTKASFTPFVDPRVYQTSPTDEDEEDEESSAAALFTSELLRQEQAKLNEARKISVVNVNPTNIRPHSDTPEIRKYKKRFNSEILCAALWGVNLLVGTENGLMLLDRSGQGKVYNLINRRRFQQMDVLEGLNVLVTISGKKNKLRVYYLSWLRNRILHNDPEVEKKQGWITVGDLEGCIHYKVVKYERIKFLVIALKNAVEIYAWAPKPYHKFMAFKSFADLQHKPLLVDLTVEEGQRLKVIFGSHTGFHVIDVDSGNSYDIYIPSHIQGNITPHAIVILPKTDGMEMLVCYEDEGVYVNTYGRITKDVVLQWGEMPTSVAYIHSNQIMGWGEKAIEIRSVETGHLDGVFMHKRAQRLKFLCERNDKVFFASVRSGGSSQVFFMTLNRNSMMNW

Serine/threonine-protein kinase MARK2 (Homo sapiens), sequence (Q7KZI7 whole entry): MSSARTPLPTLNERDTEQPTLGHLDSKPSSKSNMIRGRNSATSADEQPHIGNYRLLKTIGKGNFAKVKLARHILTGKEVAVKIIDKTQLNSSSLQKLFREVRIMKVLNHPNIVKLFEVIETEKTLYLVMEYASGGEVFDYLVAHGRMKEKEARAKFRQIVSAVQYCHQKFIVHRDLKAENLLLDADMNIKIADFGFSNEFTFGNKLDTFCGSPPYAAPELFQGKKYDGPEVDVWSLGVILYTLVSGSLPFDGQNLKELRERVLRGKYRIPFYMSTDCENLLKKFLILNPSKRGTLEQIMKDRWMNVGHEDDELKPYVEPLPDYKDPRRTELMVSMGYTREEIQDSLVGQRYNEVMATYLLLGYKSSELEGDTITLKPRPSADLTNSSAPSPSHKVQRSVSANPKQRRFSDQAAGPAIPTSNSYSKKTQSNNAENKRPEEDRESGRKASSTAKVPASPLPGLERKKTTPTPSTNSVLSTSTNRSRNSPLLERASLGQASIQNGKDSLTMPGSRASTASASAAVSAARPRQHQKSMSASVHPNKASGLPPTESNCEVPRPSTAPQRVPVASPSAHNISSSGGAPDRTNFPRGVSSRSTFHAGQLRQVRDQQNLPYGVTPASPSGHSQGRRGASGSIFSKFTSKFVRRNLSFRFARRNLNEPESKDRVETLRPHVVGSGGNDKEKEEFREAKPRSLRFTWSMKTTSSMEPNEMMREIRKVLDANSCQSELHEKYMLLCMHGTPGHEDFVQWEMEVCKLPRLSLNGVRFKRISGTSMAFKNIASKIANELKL
Tyrosine-protein kinase Lck, sequence (P06239 2-509 limits assumed): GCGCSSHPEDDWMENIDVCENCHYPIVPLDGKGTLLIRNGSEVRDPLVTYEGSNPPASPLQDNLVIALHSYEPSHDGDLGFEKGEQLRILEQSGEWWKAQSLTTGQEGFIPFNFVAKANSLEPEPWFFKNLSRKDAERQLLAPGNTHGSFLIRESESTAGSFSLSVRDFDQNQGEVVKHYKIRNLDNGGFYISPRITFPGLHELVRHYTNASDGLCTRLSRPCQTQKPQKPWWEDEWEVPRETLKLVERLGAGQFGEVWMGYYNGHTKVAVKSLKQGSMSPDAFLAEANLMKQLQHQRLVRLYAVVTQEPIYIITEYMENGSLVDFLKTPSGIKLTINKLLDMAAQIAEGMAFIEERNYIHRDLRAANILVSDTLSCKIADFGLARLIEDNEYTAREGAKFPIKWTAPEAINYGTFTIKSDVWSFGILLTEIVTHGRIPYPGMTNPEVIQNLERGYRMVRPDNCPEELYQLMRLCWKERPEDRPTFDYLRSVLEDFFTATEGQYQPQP
Receptor tyrosine-protein kinase erbB-3 (Homo sapiens), sequence (P21860 whole entry): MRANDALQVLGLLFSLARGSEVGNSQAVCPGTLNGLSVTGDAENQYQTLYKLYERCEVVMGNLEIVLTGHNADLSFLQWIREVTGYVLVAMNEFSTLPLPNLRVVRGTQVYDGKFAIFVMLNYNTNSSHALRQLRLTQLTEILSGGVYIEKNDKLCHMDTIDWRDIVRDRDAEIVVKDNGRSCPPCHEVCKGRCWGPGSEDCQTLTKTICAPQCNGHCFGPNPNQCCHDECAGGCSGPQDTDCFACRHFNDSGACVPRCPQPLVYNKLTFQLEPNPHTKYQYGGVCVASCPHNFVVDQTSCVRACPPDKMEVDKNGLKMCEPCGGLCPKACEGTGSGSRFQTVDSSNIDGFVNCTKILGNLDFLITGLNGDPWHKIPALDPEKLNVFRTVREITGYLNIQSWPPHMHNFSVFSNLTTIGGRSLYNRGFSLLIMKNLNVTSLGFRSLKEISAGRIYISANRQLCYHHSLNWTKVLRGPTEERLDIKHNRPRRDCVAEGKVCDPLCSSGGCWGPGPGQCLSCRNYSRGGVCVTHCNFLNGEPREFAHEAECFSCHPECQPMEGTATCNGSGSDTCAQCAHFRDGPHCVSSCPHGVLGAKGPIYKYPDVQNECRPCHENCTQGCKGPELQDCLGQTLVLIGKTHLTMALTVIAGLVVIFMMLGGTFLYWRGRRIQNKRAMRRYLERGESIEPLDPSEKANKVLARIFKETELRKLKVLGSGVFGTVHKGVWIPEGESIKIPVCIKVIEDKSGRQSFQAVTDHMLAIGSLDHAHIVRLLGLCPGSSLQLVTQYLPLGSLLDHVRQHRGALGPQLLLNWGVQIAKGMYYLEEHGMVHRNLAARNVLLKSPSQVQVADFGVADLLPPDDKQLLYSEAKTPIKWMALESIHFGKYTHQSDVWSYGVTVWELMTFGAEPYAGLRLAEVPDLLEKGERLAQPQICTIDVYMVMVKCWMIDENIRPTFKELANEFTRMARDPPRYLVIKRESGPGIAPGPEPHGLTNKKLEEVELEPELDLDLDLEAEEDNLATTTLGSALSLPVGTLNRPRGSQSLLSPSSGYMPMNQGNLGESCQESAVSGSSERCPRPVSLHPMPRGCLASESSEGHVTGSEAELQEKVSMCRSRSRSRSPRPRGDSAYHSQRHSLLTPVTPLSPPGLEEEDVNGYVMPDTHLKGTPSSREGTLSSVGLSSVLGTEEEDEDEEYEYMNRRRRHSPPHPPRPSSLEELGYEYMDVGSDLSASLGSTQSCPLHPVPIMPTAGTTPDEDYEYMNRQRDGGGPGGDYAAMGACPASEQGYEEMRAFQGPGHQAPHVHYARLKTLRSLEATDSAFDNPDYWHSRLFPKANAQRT
Serine/threonine-protein kinase NIM1, sequence (Q8IY84 whole entry): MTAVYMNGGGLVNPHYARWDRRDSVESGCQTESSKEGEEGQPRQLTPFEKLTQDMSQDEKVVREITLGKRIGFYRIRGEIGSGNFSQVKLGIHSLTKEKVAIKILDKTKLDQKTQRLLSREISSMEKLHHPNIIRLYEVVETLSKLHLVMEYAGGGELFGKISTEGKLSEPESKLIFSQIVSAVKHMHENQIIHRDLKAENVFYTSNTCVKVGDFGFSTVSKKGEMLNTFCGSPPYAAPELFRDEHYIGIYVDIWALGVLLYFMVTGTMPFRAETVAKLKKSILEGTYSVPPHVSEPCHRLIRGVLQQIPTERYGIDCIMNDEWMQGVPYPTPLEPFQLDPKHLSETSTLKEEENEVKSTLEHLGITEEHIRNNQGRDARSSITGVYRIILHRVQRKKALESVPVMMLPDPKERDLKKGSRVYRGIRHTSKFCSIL
Activin receptor type-2B (Homo sapiens), sequence (Q13705 whole entry): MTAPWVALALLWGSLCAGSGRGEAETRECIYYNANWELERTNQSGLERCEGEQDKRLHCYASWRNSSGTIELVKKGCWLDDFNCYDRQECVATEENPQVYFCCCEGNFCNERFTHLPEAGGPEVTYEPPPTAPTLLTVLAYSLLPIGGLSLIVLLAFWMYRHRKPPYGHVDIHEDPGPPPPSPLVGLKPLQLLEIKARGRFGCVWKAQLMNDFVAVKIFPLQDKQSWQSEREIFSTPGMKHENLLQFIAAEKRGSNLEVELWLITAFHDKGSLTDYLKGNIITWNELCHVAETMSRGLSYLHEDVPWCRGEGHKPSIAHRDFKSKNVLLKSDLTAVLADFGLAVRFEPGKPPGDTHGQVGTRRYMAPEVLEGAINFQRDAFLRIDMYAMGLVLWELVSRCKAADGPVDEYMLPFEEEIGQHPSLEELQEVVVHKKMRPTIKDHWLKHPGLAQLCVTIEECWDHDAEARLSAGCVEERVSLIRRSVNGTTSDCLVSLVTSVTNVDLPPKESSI

For the compound `Cn1cc(-n2cnc3c(NCc4nc5cc(Cl)c(Cl)cc5[nH]4)nc(N4CCOCC4)nc32)cn1`, the % of control in experiment [1] is -3.93%. In the case of `N#Cc1cccc(-c2c[nH]c3ncnc(N4CCOCC4)c23)c1`, the % of control in experiment [2] came out at 80%. Regarding `CNC(=O)Nc1ccc(-c2nc(N3CC4CCC(C3)O4)c3cnn(C4CCC5(CC4)OCCO5)c3n2)cc1`, the % of control in [3] was 100%.

For `CC[C@@H]1[C@H](F)C(=O)N[C@@H]1COc1nccc2cc(C(N)=O)c(OC)cc12` [ZIMLOVISERTIB], the % of inhibition in [4] worked out at 6.26%.

As for `C=CC(=O)Nc1cccc(C(=O)Nc2ccc(Nc3cc(-c4[nH]c(SC)nc4C)ccn3)cc2)c1`, the figures for the % of control in experiment [5] (at 1 µM) and in [5] (at 5 µM) were 73% and 50%, respectively. With `CN(C)CCOc1ccc(-c2nc(-c3ccncc3)c(-c3ccc4c(c3)CC/C4=N\O)[nH]2)cc1`, the % of control in experiment [6] stood at 72%.

For the compound `Cc1cc(CN)cc(C)c1-c1ncn(C)c1-c1cncn1C`, the % activity in experiment [7] (at 1 µM) was over 90%; in [7] (at 10 µM) it was over 80%. For `Cc1cc(C)cc([C@@H]2c3cc(C)ccc3NC(=O)CN2C(=O)c2ccc(Br)s2)c1`, the % of inhibition in experiment [8] was found to be 1%. With `Nc1cnc(N2CCc3cc(S(=O)(=O)Nc4c(F)cc(Cl)cc4F)cc(N4CCCC4=O)c32)nc1` [TP-020n], in experiment [9], the % of control stood at 80%. For the compound `CC(=O)Nc1cccc(-n2c(=O)n(C3CC3)c(=O)c3c(Nc4ccc(I)cc4F)n(C)c(=O)c(C)c32)c1`, the % of control in [10] was determined as 116%. Compound `COc1cc(N(C)c2ccnc3ccc(C(F)(F)F)cc23)cc(OC)c1OC` displayed a % binding in [11] of 69%.

The values above are taken from ChEMBL document CHEMBL5465560, “Selectivity Literature for EUbOPEN Chemogenomic Library” (2024).
